Data set [1] relates to GrpE promoter. The class given is cell-based, E. coli.
Data set [2] concerns lacZ promoter. It is filed as cell-based, E. coli.
Data set [3] deals with Fiu promoter. It is filed as cell-based, E. coli.
Data set [4] deals with Fiu promoter. It is filed as cell-based, E. coli. The source holds these as a separate data set.
For data set [5], the system named is GrpE promoter. It is filed as cell-based, E. coli. The source holds these as a separate data set.
Data set [6] has as its system E. coli luxCDABE promoter fusion library. The class given is cell-based.
Data set [7] has as its system LacAYZ promoter. It is filed as cell-based, E. coli.
For data set [8] the following is noted: rat, in vivo, po; cited from earlier work.
For data set [9], the system named is MipA promoter. The class given is cell-based, E. coli.
For data set [10], the system named is (AP-1-STRE)*2. The class given is cell-based, Saccharomyces cerevisiae.
For data set [11], the system named is MipA promoter. It is filed as cell-based, E. coli. The source holds these as a separate data set.
Data set [12] has as its system STRE. It is filed as cell-based, Saccharomyces cerevisiae.
Data set [13] relates to otsAB promoter. It is filed as cell-based, E. coli.
The test system of data set [14] is yciD promoter. It is filed as cell-based, E. coli.
Data set [15] relates to nhoA promoter. The class given is cell-based, E. coli.

Read-outs that look alike come from different tables or passages of the source.

In [1], `Oc1cc(Cl)c(Cl)cc1Cl` [2,4,5-Trichlorophenol] registered a Cmax of 31 mg/L, an EC200 of 1.0 mg/L, an RRmax of 22.1 and a t200 of 21 min. In addition, in [1], the “tmax (first value, time to reach RRmax)” value is 90/90 min; the “tmax (second value, time to reach ΔLmax)” value is 90/90 min; the ΔLmax is recorded as 54,432 RLU. In [2], this compound displayed a Cmax of 31 mg/L, an EC200 of 0.8 mg/L, an RRmax of 16.1 and a t200 of 95 min. Besides, in data set [2], the “tmax (first value, time to reach RRmax)” value was 120/120 min; the “tmax (second value, time to reach ΔLmax)” value is on record as 120/120 min; the ΔLmax is 74,832 RLU. Besides, in data set [3], the Cmax was 31 mg/L, the EC200 turned out to be 1.2 mg/L, the RRmax turned out to be 11.7 and the t200 was 39 min. Besides, in data set [3], the “tmax (first value, time to reach RRmax)” value is given as 30/120 min; the “tmax (second value, time to reach ΔLmax)” value is 30/120 min; the ΔLmax was 33,697 RLU.

In data set [1], `Oc1c(Cl)cccc1Cl` [2,6-Dichlorophenol] came in with a Cmax of 31 mg/L, an EC200 of 1.2 mg/L, an RRmax of 19.5 and a t200 of 29 min. In addition, in [1], the “tmax (first value, time to reach RRmax)” value is on record as 90/90 min; the “tmax (second value, time to reach ΔLmax)” value was 90/90 min; the ΔLmax is reported as 47,877 RLU. For the same compound, in data set [3], the Cmax was found to be 125 mg/L, the EC200 was 16.0 mg/L, the RRmax worked out at 4.4 and the t200 stood at 31 min. Also, in data set [3], the “tmax (first value, time to reach RRmax)” value is 30/120 min; the “tmax (second value, time to reach ΔLmax)” value was 30/120 min; the ΔLmax is 25,553 RLU.

`Oc1ccccc1Cl` [2-Chlorophenol]: in data set [1], the Cmax is 250 mg/L, the EC200 was 2.8 mg/L, the RRmax worked out at 18.7 and the t200 is 32 min. For the same compound, in data set [1], the “tmax (first value, time to reach RRmax)” value was 90/90 min; the “tmax (second value, time to reach ΔLmax)” value is given as 90/90 min; the ΔLmax was 33,345 RLU. Also, in data set [3], the Cmax was determined as 500 mg/L, the EC200 was 3.4 mg/L, the RRmax stood at 5.8 and the t200 was found to be 80 min. Besides, in data set [3], the “tmax (first value, time to reach RRmax)” value was 90/120 min; the “tmax (second value, time to reach ΔLmax)” value is listed as 90/120 min; the ΔLmax is listed as 11,971 RLU.

For `COc1cc2c(c(OC)c1OC)-c1ccc(OC)c(=O)cc1[C@@H](NC(C)=O)CC2` [Colchicine], in data set [3], the Cmax is 45 mg/L, the EC200 worked out at 14.3 mg/L, the RRmax was 4.0 and the t200 turned out to be 85 min. Besides, in data set [3], the “tmax (first value, time to reach RRmax)” value is reported as 120/120 min; the “tmax (second value, time to reach ΔLmax)” value is reported as 120/120 min; the ΔLmax is on record as 1,924 RLU.

In the case of `COP(=O)(OC)OC=C(Cl)Cl` [DDVP, Dichlorvos], in data set [4], the Cmax is 500 mg/L and the RRmax is listed as 5. In addition, in data set [5], the Cmax was found to be 125 mg/L. Besides, in [1], the Cmax was determined as 125 mg/L; the EC200 amounted to 32.5 mg/L; the t200 turned out to be 41 min; the “tmax (first value, time to reach RRmax)” value was 132/132 min. In [1], the “tmax (second value, time to reach ΔLmax)” value was 132/132 min and the ΔLmax was 5,290 RLU. In data set [6], the “share of library promoters with 0 < RRmax < 2” value (from here on “share … with 0 < RRmax < 2”) worked out at 91.7%, the “share of library promoters with 2 < RRmax < 3” value (“share … with 2 < RRmax < 3” for short) stood at 5.7%, the “share of library promoters with 3 < RRmax < 5” value (“share … with 3 < RRmax < 5” for short) came to 2.0% and the “share of library promoters with 5 < RRmax < 10” value (“share … with 5 < RRmax < 10” for short) was found to be 0.4%.

In data set [7], `CCOP(=S)(OCC)Oc1ccc([N+](=O)[O-])cc1` [Ethyl Parathion] showed a Cmax of 500 mg/L and an RRmax of 8. Also, the LD50 (usually the dose expected to kill half of the subjects tested) in data set [8] is given as 2 mg/kg. For the same compound, the Cmax in [9] was found to be 500 mg/L. For the same compound, in data set [10], the fold higher response is 4-5 fold and the “time within which a response can be seen” value fell in the range of 5 to 10 min. Also, in [11], the Cmax worked out at 500 mg/L; the EC200 came to 79.0 mg/L; the t200 is reported as 60 min; the “tmax (first value, time to reach RRmax)” value is reported as 87/110 min. In [11], the “tmax (second value, time to reach ΔLmax)” value is on record as 87/110 min and the ΔLmax is listed as 196,600 RLU. Moreover, in data set [2], the Cmax was 125 mg/L, the EC200 was 13.0 mg/L, the RRmax came to 4.7 and the t200 was determined as 120 min. Further, in [2], the “tmax (first value, time to reach RRmax)” value is recorded as 132/132 min; the “tmax (second value, time to reach ΔLmax)” value is recorded as 132/132 min; the ΔLmax was 47,776 RLU. In [6], the “share … with 0 < RRmax < 2” value amounted to 89.6%, the “share … with 2 < RRmax < 3” value turned out to be 6.3%, the “share … with 3 < RRmax < 5” value worked out at 2.1% and the “share … with 5 < RRmax < 10” value stood at 1.7%. Also, in [12], the fold higher response is 4-5 fold and the “time within which a response can be seen” value lay within 5 to 10 min.

Take `CNC(=S)[S-].[Na+]` [Metham Sodium]: in data set [11], the Cmax was determined as 180 mg/L, the EC200 worked out at 18.0 mg/L, the RRmax is 5.9 and the t200 is reported as 100 min. For the same compound, in [11], the “tmax (first value, time to reach RRmax)” value was 120/120 min; the “tmax (second value, time to reach ΔLmax)” value is 120/120 min; the ΔLmax is recorded as 27,745 RLU. In [2], the Cmax was 180 mg/L, the EC200 turned out to be 20.0 mg/L, the RRmax turned out to be 6.5 and the t200 is 90 min. In data set [2], the “tmax (first value, time to reach RRmax)” value is 120/120 min; the “tmax (second value, time to reach ΔLmax)” value is on record as 120/120 min; the ΔLmax is reported as 30,468 RLU.

In data set [13], `CNC(=O)ON=C(C)SC` [Methomyl] displayed a Cmax of 2000 mg/L and an RRmax of 3. Further, the LD50 in data set [8] is 17 mg/kg. Moreover, in [14], the Cmax was 2000 mg/L and the RRmax is reported as 2. Further, in [6], the “response of the library promoters to the toxicant (in words)” value (from here on “response of the library promoters”) is reported as “very poor responses”, the “share … with 0 < RRmax < 2” value is recorded as 90.1%, the “share … with 2 < RRmax < 3” value was determined as 7.1% and the “share … with 3 < RRmax < 5” value is 2.0%. For the same compound, in [6], the “share … with 5 < RRmax < 10” value amounted to 0.7% and the “share of library promoters with 10 < RRmax” value is on record as 0.1%.

Consider `C[n+]1ccc(-c2cc[n+](C)cc2)cc1` [Paraquat], for which, in data set [7], the Cmax turned out to be 500 mg/L and the RRmax is 28. For the same compound, the 50% lethal dose (LD50) in data set [8] was 150 mg/kg. In [15], the EC200 is on record as 0.43 mg/L; the t200 is listed as 21 min; the “tmax (first value, time to reach RRmax)” value is 96/110 min; the “tmax (second value, time to reach ΔLmax)” value is recorded as 96/110 min. In data set [15], the ΔLmax is listed as 146,342 RLU. In data set [2], the Cmax came out at 32.5 mg/L, the EC200 turned out to be 9.0 mg/L, the RRmax came to 13.0 and the t200 is recorded as 85 min. Moreover, in data set [2], the “tmax (first value, time to reach RRmax)” value is recorded as 123/132 min; the “tmax (second value, time to reach ΔLmax)” value is listed as 123/132 min; the ΔLmax is 253,421 RLU. Also, in data set [3], the Cmax was found to be 250 mg/L, the EC200 is 9.8 mg/L, the RRmax came out at 16.9 and the t200 was found to be 42 min. Also, in data set [3], the “tmax (first value, time to reach RRmax)” value was 120/60 min; the “tmax (second value, time to reach ΔLmax)” value is 120/60 min; the ΔLmax is recorded as 29,591 RLU. Further, in data set [6], the “response of the library promoters” value is on record as “strongest inducer”, the “share … with 0 < RRmax < 2” value stood at 71.1%, the “share … with 2 < RRmax < 3” value stood at 13.7% and the “share … with 3 < RRmax < 5” value is 7.5%. Moreover, in data set [6], the “share … with 5 < RRmax < 10” value is 3.7% and the “share of library promoters with 10 < RRmax” value came out at 4%.

In the case of `COC(=O)C=C(C)OP(=O)(OC)OC` [Phosdrin], in [2], the Cmax turned out to be 180 mg/L, the EC200 was determined as 38.3 mg/L, the RRmax is on record as 3.7 and the t200 came to 110 min. Moreover, in [2], the “tmax (first value, time to reach RRmax)” value is given as 120/120 min; the “tmax (second value, time to reach ΔLmax)” value is given as 120/120 min; the ΔLmax is on record as 12,900 RLU.

Consider Botulinum Toxin A, for which, in data set [6], the “response of the library promoters” value is “did not produce any response” and the “share … with 0 < RRmax < 2” value was 100%.

The record behind these values is patent US20080044844A1 (priority 2004, published 2008).
